Test results published in PubChem BioAssay (NCI).
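The compound was tested at five concentrations on cells cultured in 96-well plates, with a 48-hour exposure period. GI50 marks 50% less growth. The concentration for full growth arrest is given as TGI.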

What was measured:
Experiment in all cases: NCI anticancer screen, dose series, 48 h
[1] = system: SNB-19 CNS
[2] = system: U251 CNS
[3] = system: SF-295 CNS
[4] = system: CAKI-1 renal
[5] = system: UACC-257 melanoma
[6] = system: MDA-MB-231 breast
[7] = system: RXF 393 renal
[8] = system: SF-268 CNS
[9] = system: SNB-75 CNS
[10] = system: SR leukemia
[11] = system: HT29 colon
[12] = system: BT-549 breast
[13] = system: K-562 leukemia
[14] = system: DU-145 prostate
[15] = system: NCI-H226 lung
[16] = system: SK-MEL-2 melanoma
[17] = system: SK-MEL-28 melanoma
[18] = system: OVCAR-8 ovarian
[19] = system: CCRF-CEM leukemia
[20] = system: NCI/ADR-RES ovarian
[21] = system: RPMI-8226 leukemia
[22] = system: MALME-3M melanoma
[23] = system: TK-10 renal
[24] = system: OVCAR-4 ovarian
[25] = system: NCI-H460 lung
[26] = system: MOLT-4 leukemia
[27] = system: HOP-62 NSCLC
[28] = system: KM12 colon
[29] = system: ACHN renal
[30] = system: LOX IMVI melanoma
[31] = system: UACC-62 melanoma
[32] = system: SF-539 CNS
[33] = system: SN12C renal
[34] = system: HL-60(TB) leukemia
[35] = system: MDA-MB-435
[36] = system: T-47D breast
[37] = system: SK-MEL-5 melanoma
[38] = system: UO-31 renal
[39] = system: A549 NSCLC
[40] = system: IGROV1 ovarian
[41] = system: HCT-15 colon
[42] = system: HS 578T breast
[43] = system: HOP-92 NSCLC
[44] = system: OVCAR-3 ovarian
[45] = system: COLO 205 colon
[46] = system: NCI-H522 lung
[47] = system: SK-OV-3 ovarian
[48] = system: SW-620 colon
[49] = system: MCF7 breast
[50] = system: 786-0 renal
[51] = system: NCI-H23 lung
[52] = system: HCC-2998 colon
[53] = system: PC-3 prostate
[54] = system: EKVX NSCLC
[55] = system: OVCAR-5 ovarian
[56] = system: A498 renal

In the case of `CN(CCCCCl)P(=O)(OCc1ccc([N+](=O)[O-])o1)C(F)(F)c1ccc(CC(=O)N[C@@H](CC(=O)O)C(=O)N[C@@H](Cc2ccc(C(F)(F)P(=O)(OCc3ccc([N+](=O)[O-])o3)N(C)CCCCCl)cc2)C(N)=O)cc1` (some centres not stated), the GI50 [1] is reported as 54.9 µM, the TGI [1] is reported as > 100 µM and the GI50 [2] is reported as 50.8 µM. For the same compound, the TGI [2] was > 100 µM, the GI50 [3] was > 100 µM and the TGI [3] was > 100 µM. The GI50 [4] was > 100 µM, the TGI [4] was > 100 µM and the GI50 [5] was > 100 µM. The TGI [5] was > 100 µM, the GI50 [6] was 39.6 µM and the TGI [6] was > 100 µM. The GI50 [7] was > 100 µM, the TGI [7] was > 100 µM and the GI50 [8] was 42.9 µM. For the same compound, the TGI [8] was > 100 µM, the GI50 [9] was 34.5 µM and the TGI [9] was 91.9 µM. The GI50 [10] was 22.9 µM, the TGI [10] was 49.9 µM and the GI50 [11] was 60.4 µM. The TGI [11] was > 100 µM, the GI50 [12] was 18.8 µM and the TGI [12] was 44.4 µM. The GI50 [13] was 22.4 µM, the TGI [13] was 55.7 µM and the GI50 [14] was 85.8 µM. The TGI [14] was > 100 µM, the GI50 [15] was > 100 µM and the TGI [15] was > 100 µM. For the same compound, the GI50 [16] was 21.6 µM, the TGI [16] was 57.4 µM and the GI50 [17] was 42.4 µM. The TGI [17] was > 100 µM, the GI50 [18] was > 100 µM and the TGI [18] was > 100 µM. The GI50 [19] was 30.2 µM, the TGI [19] was > 100 µM and the GI50 [20] was > 100 µM. The TGI [20] was > 100 µM, the GI50 [21] was 25.5 µM and the TGI [21] was 71.9 µM. The GI50 [22] was > 100 µM, the TGI [22] was > 100 µM and the GI50 [23] was 76.1 µM. The TGI [23] was > 100 µM, the GI50 [24] was 39.1 µM and the TGI [24] was > 100 µM. The GI50 [25] was > 100 µM, the TGI [25] was > 100 µM and the GI50 [26] was 31.4 µM. The TGI [26] was 91.2 µM, the GI50 [27] was > 100 µM and the TGI [27] was > 100 µM. For the same compound, the GI50 [28] was 43 µM, the TGI [28] was > 100 µM and the GI50 [29] was > 100 µM. The TGI [29] was > 100 µM, the GI50 [30] was 28.2 µM and the TGI [30] was > 100 µM. The GI50 [31] was 58 µM, the TGI [31] was > 100 µM and the GI50 [32] was 31 µM. For the same compound, the TGI [32] was 99.8 µM, the GI50 [33] was > 100 µM and the TGI [33] was > 100 µM. The GI50 [34] was 28 µM, the TGI [34] was 64.5 µM and the GI50 [35] was 49.1 µM. For the same compound, the TGI [35] was > 100 µM, the GI50 [36] was 39.1 µM and the TGI [36] was > 100 µM. The GI50 [37] was 43.8 µM, the TGI [37] was > 100 µM and the GI50 [38] was > 100 µM. The TGI [38] was > 100 µM, the GI50 [39] was > 100 µM and the TGI [39] was > 100 µM. For the same compound, the GI50 [40] was 45.7 µM, the TGI [40] was > 100 µM and the GI50 [41] was > 100 µM. The TGI [41] was > 100 µM, the GI50 [42] was 37.6 µM and the TGI [42] was > 100 µM. It also gave a GI50 [43] of 22.5 µM, a TGI [43] of 52.3 µM and a GI50 [44] of 37.6 µM. For the same compound, the TGI [44] was > 100 µM, the GI50 [45] was 41 µM and the TGI [45] was > 100 µM. The GI50 [46] was 35.7 µM, the TGI [46] was > 100 µM and the GI50 [47] was > 100 µM. The TGI [47] was > 100 µM, the GI50 [48] was 81.9 µM and the TGI [48] was > 100 µM. For the same compound, the GI50 [49] was 32.8 µM, the TGI [49] was > 100 µM and the GI50 [50] was > 100 µM. For the same compound, the TGI [50] was > 100 µM, the GI50 [51] was 51.7 µM and the TGI [51] was > 100 µM. For the same compound, the GI50 [52] was 24.5 µM, the TGI [52] was 56.7 µM and the GI50 [53] was 80.5 µM. For the same compound, the TGI [53] was > 100 µM, the GI50 [54] was 67.7 µM and the TGI [54] was > 100 µM. For the same compound, the GI50 [55] was > 100 µM, the TGI [55] was > 100 µM and the GI50 [56] was 33 µM. The TGI [56] was 87.5 µM.
